Laboratory results from publication PMC11915801, “Evolutionary trajectory of bacterial resistance to antibiotics and antimicrobial peptides in Escherichia coli” (mSystems, 2025).
≈ marks a conversion by molar mass, not a printed value. Where two headings read alike, the source gives them in different places.

Legend:
Test in all cases: microbe, parasite or virus in culture
Assay type in all cases: cell-based, Escherichia coli
CHL80 (evolved MG1655) = details: broth microdilution, chloramphenicol-evolved strain
From the text: (§1) To ensure the stable resistance evolution and inheritance of MG1655 under different drugs, we randomly selected three monoclonals from the evolved strains. The final antibiotic-evolved strains were designated as AMP120, AZI120, CHL80, CIP120, DOX120, KAN80, NIT70, and TMP30, while the final AMP-evolved strains were named COL120, Ind120, Omi120, Pex120, PGLA120, Pleu120, R8120, SAAP120, LI120, and SLAP120.
(§2) The broth microdilution method was used to measure the MIC values of antibiotics and peptides according to the Clinical and Laboratory Standards Institute guidelines. The MIC value is defined as the lowest drug concentration without visible bacteria.

AZI120 (evolved MG1655) = details: broth microdilution, azithromycin-evolved strain
From the text: as §1, §2

TMP30 (evolved MG1655) = details: broth microdilution, trimethoprim-evolved strain
From the text: as §1, §2

NIT70 (evolved MG1655) = details: broth microdilution, nitrofurantoin-evolved strain
From the text: as §1, §2

KAN80 (evolved MG1655) = test system: KAN80 (evolved MG1655)
From the text: as §1, §2

CIP120 (evolved MG1655) = details: broth microdilution, ciprofloxacin-evolved strain
From the text: as §1, §2

AMP120 (evolved MG1655) = test system: AMP120 (evolved MG1655)
From the text: as §1, §2

DOX120 (evolved MG1655) = details: broth microdilution, doxycycline-evolved strain
From the text: as §1, §2

COL120 (evolved MG1655) = details: broth microdilution, colistin-evolved strain
From the text: as §1, §2

E. coli K-12 MG1655 = details: for MIC: Escherichia coli
Description: as §2
Eight antibiotics and ten AMPs at the sub-inhibitory concentration were prepared. A 300-µL system, including 260 µL of MH broth, 30 µL of prepared drug, and 10 µL of bacterial culture, was used for resistance passages. After 12 h of incubation at 37℃ and 200 rpm, 10 µL of the above bacterial culture was added into the new sterile drug-containing broth. MIC values of bacterial culture were determined. The drug concentration was adjusted according to the MIC value change until the end of the 120 passages.

Molecule: AC-Dab-Ile-Dab-Ile-Dab-D-Phe-Leu-Dab-D-Val-Leu-Ala-NH2 [SLAP, SLAP-S25, short-linear AMP]
- MIC values of evolved MG1655, strain CHL80 (CHL80 (evolved MG1655)): 2 µg/mL
- MIC values of evolved MG1655, strain AZI120 (AZI120 (evolved MG1655)): 32 µg/mL
- MIC values of evolved MG1655, strain TMP30 (TMP30 (evolved MG1655)): 4 µg/mL
- MIC values of evolved MG1655, strain NIT70 (NIT70 (evolved MG1655)): 2 µg/mL
- MIC values of evolved MG1655, strain KAN80 (KAN80 (evolved MG1655); broth microdilution, kanamycin-evolved strain): 2 µg/mL
- MIC values of evolved MG1655, strain CIP120 (CIP120 (evolved MG1655)): 2 µg/mL
- collateral sensitivity of AMP120 (fold change of MIC vs wild-type MG1655) (AMP120 (evolved MG1655); MIC of AMP120 compared with MG1655): exceeding fourfold
- MIC values of evolved MG1655, strain AMP120 (AMP120 (evolved MG1655); broth microdilution, ampicillin-evolved strain): 1 µg/mL
- MIC values of evolved MG1655, strain DOX120 (DOX120 (evolved MG1655)): 2 µg/mL
- MIC values of evolved MG1655, strain COL120 (COL120 (evolved MG1655)): 8 µg/mL
- evolution of resistance in MG1655 (in words) (E. coli K-12 MG1655; MG1655, sub-inhibitory drug in MH broth over 60 days): marginal increase in resistance
- MIC of MG1655 under the pressure of the same drug, generation 20 (E. coli K-12 MG1655; as E2, generation 20): 8 µg/mL
- MIC of MG1655 under the pressure of the same drug, generation 30 (E. coli K-12 MG1655; as E2, generation 30): 8 µg/mL
- MIC of MG1655 under the pressure of the same drug, generation 40 (E. coli K-12 MG1655; as E2, generation 40): 8 µg/mL
- MIC of MG1655 under the pressure of the same drug, generation 50 (E. coli K-12 MG1655; as E2, generation 50): 16 µg/mL
- MIC of MG1655 under the pressure of the same drug, generation 60 (E. coli K-12 MG1655; as E2, generation 60): 16 µg/mL
- MIC of MG1655 under the pressure of the same drug, generation 70 (E. coli K-12 MG1655; as E2, generation 70): 16 µg/mL
- MIC of MG1655 under the pressure of the same drug, generation 80 (E. coli K-12 MG1655; as E2, generation 80): 32 µg/mL
- MIC of MG1655 under the pressure of the same drug, generation 90 (E. coli K-12 MG1655; as E2, generation 90): 32 µg/mL
- MIC of MG1655 under the pressure of the same drug, generation 100 (E. coli K-12 MG1655; as E2, generation 100): 32 µg/mL
- MIC of MG1655 under the pressure of the same drug, generation 110 (E. coli K-12 MG1655; as E2, generation 110): 64 µg/mL
- MIC of MG1655 under the pressure of the same drug, generation 120 (E. coli K-12 MG1655; as E2, generation 120): 64 µg/mL
- MIC of MG1655 under the pressure of the same drug, generation primary (E. coli K-12 MG1655; broth microdilution (CLSI), primary MG1655 before passage): 4 µg/mL
- MIC of MG1655 under the pressure of the same drug, generation 10 (E. coli K-12 MG1655; broth microdilution, line passaged in MH broth with sub-inhibitory drug, 12 h per passage, 37℃, generation 10): 4 µg/mL

Molecule: O=C(N[C@H](CO)[C@H](O)c1ccc([N+](=O)[O-])cc1)C(Cl)Cl [CHL, Chloramphenicol]
- MIC (CHL80 (evolved MG1655); Escherichia coli, MG1655): 512 µg/mL (≈ 1580 µM)
- MIC (AZI120 (evolved MG1655); Escherichia coli, MG1655): 8 µg/mL (≈ 24.8 µM)
- MIC (TMP30 (evolved MG1655); Escherichia coli, MG1655): 8 µg/mL (≈ 24.8 µM)
- MIC (NIT70 (evolved MG1655); Escherichia coli, MG1655): 8 µg/mL (≈ 24.8 µM)
- MIC (KAN80 (evolved MG1655); Escherichia coli, MG1655, broth microdilution, kanamycin-evolved strain): 2 µg/mL (≈ 6.19 µM)
- collateral sensitivity of KAN80 (fold change of MIC vs wild-type MG1655) (KAN80 (evolved MG1655); MIC of KAN80 compared with MG1655): exceeding fourfold
- MIC (CIP120 (evolved MG1655); Escherichia coli): 32 µg/mL (≈ 99 µM)
- MIC (AMP120 (evolved MG1655); Escherichia coli, MG1655, broth microdilution, ampicillin-evolved strain): 16 µg/mL (≈ 49.5 µM)
- MIC (DOX120 (evolved MG1655); Escherichia coli, MG1655): 64 µg/mL (≈ 198 µM)
- MIC (COL120 (evolved MG1655); Escherichia coli, MG1655): 8 µg/mL (≈ 24.8 µM)
- MIC (E. coli K-12 MG1655; MG1655, 12 h, read-out: MIC of MG1655 under the pressure of the same drug, generation 10): 8 µg/mL
- MIC (E. coli K-12 MG1655; MG1655, read-out: MIC of MG1655 under the pressure of the same drug, generation primary): 8 µg/mL
- MIC (E. coli K-12 MG1655; MG1655, as E2, generation 20, read-out: MIC of MG1655 under the pressure of the same drug, generation 20): 16 µg/mL
- MIC (E. coli K-12 MG1655; MG1655, as E2, generation 30, read-out: MIC of MG1655 under the pressure of the same drug, generation 30): 32 µg/mL
- MIC (E. coli K-12 MG1655; MG1655, as E2, generation 40, read-out: MIC of MG1655 under the pressure of the same drug, generation 40): 64 µg/mL
- MIC (E. coli K-12 MG1655; MG1655, as E2, generation 50, read-out: MIC of MG1655 under the pressure of the same drug, generation 50): 128 µg/mL
- MIC (E. coli K-12 MG1655; MG1655, as E2, generation 60, read-out: MIC of MG1655 under the pressure of the same drug, generation 60): 256 µg/mL
- MIC (E. coli K-12 MG1655; MG1655, as E2, generation 70, read-out: MIC of MG1655 under the pressure of the same drug, generation 70): 256 µg/mL
- MIC (E. coli K-12 MG1655; MG1655, as E2, generation 80, read-out: MIC of MG1655 under the pressure of the same drug, generation 80): 512 µg/mL
